Legend:
[1] = refractive index (Na D-line) (dimensionless); details: 101.33 kPa, Liquid
[2] = xn = mol fraction of the nth substance listed
[3] = refractive index (Na D-line) (dimensionless); xn = mol fraction of the nth substance listed; details: 101 kPa, Liquid

CC(C)S(=O)C(C)C [2,2'-sulfinylbispropane]
Details	surface tension liquid-gas [mN/m]
298.15 K	31.8
303.15 K	31.2
308.15 K	30.7
313.15 K	30.3
318.15 K	29.8
323.15 K	29.5
328.15 K	29.1

[1]
Details	refractive index
298.15 K	1.4645
303.15 K	1.462
308.15 K	1.4595

CC(C)S(=O)C(C)C [2,2'-sulfinylbispropane] + O
Details	refractive index, [3]	surface tension liquid-gas, [2] [mN/m]
298.15 K, x1 = 0.0087	1.3435	52.5
298.15 K, x1 = 0.0197	1.353	48.8
298.15 K, x1 = 0.0505	1.38	–
298.15 K, x1 = 0.0987	1.407	–
298.15 K, x1 = 0.4035	1.453	35.9
298.15 K, x1 = 0.6002	1.46	33.9
298.15 K, x1 = 0.7756	1.4625	32.6
298.15 K, x1 = 0.8899	1.4635	32.2
303.15 K, x1 = 0.0087	1.343	52.4
303.15 K, x1 = 0.0197	1.352	48.1
303.15 K, x1 = 0.0505	1.3785	42.9
303.15 K, x1 = 0.0987	1.406	–
303.15 K, x1 = 0.4035	1.451	34.6
303.15 K, x1 = 0.6002	1.4575	33.3
303.15 K, x1 = 0.7756	1.461	32.1
303.15 K, x1 = 0.8899	1.4625	31.7
308.15 K, x1 = 0.0087	1.342	51.5
308.15 K, x1 = 0.0197	1.3515	47.3
308.15 K, x1 = 0.0505	1.3775	41.8
308.15 K, x1 = 0.0987	1.404	35.1
308.15 K, x1 = 0.4035	1.448	34.1
308.15 K, x1 = 0.6002	1.456	32.7
308.15 K, x1 = 0.7756	1.459	31.5
308.15 K, x1 = 0.8899	1.4605	31.1
313.15 K, x1 = 0.0087	–	50.6
313.15 K, x1 = 0.0197	–	46.6
313.15 K, x1 = 0.0505	–	41.2
313.15 K, x1 = 0.0987	–	36
313.15 K, x1 = 0.4035	–	33.4
313.15 K, x1 = 0.6002	–	32.1
313.15 K, x1 = 0.7756	–	30.9
313.15 K, x1 = 0.8899	–	30.6
318.15 K, x1 = 0.0087	–	49.8
318.15 K, x1 = 0.0197	–	45.8
318.15 K, x1 = 0.0505	–	40.6
318.15 K, x1 = 0.0987	–	37
318.15 K, x1 = 0.4035	–	32.8
318.15 K, x1 = 0.6002	–	31.5
318.15 K, x1 = 0.7756	–	30.3
318.15 K, x1 = 0.8899	–	30
323.15 K, x1 = 0.0087	–	48.9
323.15 K, x1 = 0.0197	–	45
323.15 K, x1 = 0.0505	–	39.9
323.15 K, x1 = 0.0987	–	36.7
323.15 K, x1 = 0.4035	–	31.8
323.15 K, x1 = 0.6002	–	30.4
323.15 K, x1 = 0.7756	–	29.8
323.15 K, x1 = 0.8899	–	29.5
328.15 K, x1 = 0.0087	–	48
328.15 K, x1 = 0.0197	–	43.7
328.15 K, x1 = 0.0505	–	39.7
328.15 K, x1 = 0.0987	–	36.4
328.15 K, x1 = 0.4035	–	31
328.15 K, x1 = 0.6002	–	29.8
328.15 K, x1 = 0.7756	–	29.3
328.15 K, x1 = 0.8899	–	28.9

CC[S+]([O-])CC [diethyl sulfoxide]
Details	surface tension liquid-gas [mN/m]
298.15 K	34.6
303.15 K	34.1
308.15 K	33.7
313.15 K	33.2
318.15 K	32.7
323.15 K	32.4
328.15 K	32

[1]
Details	refractive index
298.15 K	1.468
303.15 K	1.466
308.15 K	1.464

CC[S+]([O-])CC [diethyl sulfoxide] + O
Details	refractive index, [3]	surface tension liquid-gas, [2] [mN/m]
298.15 K, x1 = 0.0099	1.3415	65.5
298.15 K, x1 = 0.0207	–	62.5
298.15 K, x1 = 0.0513	1.3735	55.4
298.15 K, x1 = 0.1001	1.399	50.9
298.15 K, x1 = 0.1999	1.43	46
298.15 K, x1 = 0.2999	1.446	42.8
298.15 K, x1 = 0.4091	1.457	–
298.15 K, x1 = 0.4908	–	40.4
298.15 K, x1 = 0.5189	1.458	–
298.15 K, x1 = 0.5803	1.4605	–
298.15 K, x1 = 0.7123	1.4645	37.6
298.15 K, x1 = 0.7741	1.466	–
303.15 K, x1 = 0.0099	1.332	64.8
303.15 K, x1 = 0.0207	–	61.5
303.15 K, x1 = 0.0513	1.3675	54.9
303.15 K, x1 = 0.1001	1.373	50.2
303.15 K, x1 = 0.1999	1.428	45.2
303.15 K, x1 = 0.2999	1.4445	42
303.15 K, x1 = 0.4091	1.4555	–
303.15 K, x1 = 0.4908	–	39.8
303.15 K, x1 = 0.5189	1.457	–
303.15 K, x1 = 0.5803	1.4585	–
303.15 K, x1 = 0.7123	1.463	37.1
303.15 K, x1 = 0.7741	1.464	–
308.15 K, x1 = 0.0099	1.3315	64.1
308.15 K, x1 = 0.0207	–	60.4
308.15 K, x1 = 0.0513	1.3685	54
308.15 K, x1 = 0.1001	1.372	49.5
308.15 K, x1 = 0.1999	1.4265	44.2
308.15 K, x1 = 0.2999	1.443	41.9
308.15 K, x1 = 0.4091	1.453	–
308.15 K, x1 = 0.4908	–	39.3
308.15 K, x1 = 0.5189	1.455	–
308.15 K, x1 = 0.5803	1.4565	–
308.15 K, x1 = 0.7123	1.4615	37
308.15 K, x1 = 0.7741	1.462	–
313.15 K, x1 = 0.0099	–	62.8
313.15 K, x1 = 0.0207	–	59.3
313.15 K, x1 = 0.0513	–	53.1
313.15 K, x1 = 0.1001	–	48.4
313.15 K, x1 = 0.1999	–	47.1
313.15 K, x1 = 0.2999	–	44.3
313.15 K, x1 = 0.4908	–	38.6
313.15 K, x1 = 0.7123	–	36.5
318.15 K, x1 = 0.0099	–	61.8
318.15 K, x1 = 0.0207	–	58.4
318.15 K, x1 = 0.0513	–	52.4
318.15 K, x1 = 0.1001	–	47.7
318.15 K, x1 = 0.1999	–	46.1
318.15 K, x1 = 0.2999	–	43.2
318.15 K, x1 = 0.4908	–	38
318.15 K, x1 = 0.7123	–	35.7
323.15 K, x1 = 0.0099	–	60.8
323.15 K, x1 = 0.0207	–	56.8
323.15 K, x1 = 0.0513	–	50.5
323.15 K, x1 = 0.1001	–	46.5
323.15 K, x1 = 0.1999	–	45.3
323.15 K, x1 = 0.2999	–	41.6
323.15 K, x1 = 0.4908	–	37.3
323.15 K, x1 = 0.7123	–	35
328.15 K, x1 = 0.0099	–	59.9
328.15 K, x1 = 0.0207	–	56.4
328.15 K, x1 = 0.0513	–	49.7
328.15 K, x1 = 0.1001	–	45.7
328.15 K, x1 = 0.1999	–	43.4
328.15 K, x1 = 0.2999	–	40.7
328.15 K, x1 = 0.4908	–	36.6
328.15 K, x1 = 0.7123	–	34.4

C[S+](C)[O-] [dimethyl sulfoxide]
Details	surface tension liquid-gas [mN/m]
298.15 K	41.7
303.15 K	41
308.15 K	40.3
313.15 K	39.7
318.15 K	39.1
323.15 K	38.5
328.15 K	37.9

[1]
Details	refractive index
298.15 K	1.4765
303.15 K	1.474
308.15 K	1.472

CCCS(=O)CCC [dipropyl sulfoxide]
Details	surface tension liquid-gas [mN/m]
298.15 K	32.6
303.15 K	32
308.15 K	31.5
313.15 K	31
318.15 K	30.5
323.15 K	29.9
328.15 K	29.4

[1]
Details	refractive index
298.15 K	1.4595
303.15 K	1.458
308.15 K	1.456

CCCS(=O)CCC [dipropyl sulfoxide] + O
Details	refractive index, [3]	surface tension liquid-gas, [2] [mN/m]
298.15 K, x1 = 0.0105	1.344	52.3
298.15 K, x1 = 0.01985	1.3516	–
298.15 K, x1 = 0.0199	–	47.4
298.15 K, x1 = 0.0469	1.374	42.2
298.15 K, x1 = 0.0998	1.4009	39.6
298.15 K, x1 = 0.2019	1.4305	37.5
298.15 K, x1 = 0.2809	1.4395	37.2
298.15 K, x1 = 0.3975	1.446	35.8
298.15 K, x1 = 0.5001	–	35.4
298.15 K, x1 = 0.5049	1.4502	–
298.15 K, x1 = 0.6818	1.455	34.3
298.15 K, x1 = 0.9002	1.458	–
303.15 K, x1 = 0.0105	1.343	51.1
303.15 K, x1 = 0.01985	1.351	–
303.15 K, x1 = 0.0199	–	46.4
303.15 K, x1 = 0.0469	1.3725	41.5
303.15 K, x1 = 0.0998	1.399	38.9
303.15 K, x1 = 0.2019	1.4285	37
303.15 K, x1 = 0.2809	1.4375	36.5
303.15 K, x1 = 0.3975	1.4455	35.2
303.15 K, x1 = 0.5001	–	34.9
303.15 K, x1 = 0.5049	1.4495	–
303.15 K, x1 = 0.6818	1.454	34.2
303.15 K, x1 = 0.9002	1.4555	–
308.15 K, x1 = 0.0105	1.342	49.9
308.15 K, x1 = 0.01985	1.3506	–
308.15 K, x1 = 0.0199	–	45.3
308.15 K, x1 = 0.0469	1.3711	40.7
308.15 K, x1 = 0.0998	1.398	38.1
308.15 K, x1 = 0.2019	1.4245	36.5
308.15 K, x1 = 0.2809	1.435	36
308.15 K, x1 = 0.3975	1.4445	34.5
308.15 K, x1 = 0.5001	–	34.3
308.15 K, x1 = 0.5049	1.4486	–
308.15 K, x1 = 0.6818	1.452	33.5
308.15 K, x1 = 0.9002	1.454	–
313.15 K, x1 = 0.0105	–	48.8
313.15 K, x1 = 0.0199	–	44.4
313.15 K, x1 = 0.0469	–	40
313.15 K, x1 = 0.0998	–	37.3
313.15 K, x1 = 0.2019	–	35.9
313.15 K, x1 = 0.2809	–	35
313.15 K, x1 = 0.3975	–	34.1
313.15 K, x1 = 0.5001	–	33.8
313.15 K, x1 = 0.6818	–	32.9
318.15 K, x1 = 0.0105	–	47.6
318.15 K, x1 = 0.0199	–	44.3
318.15 K, x1 = 0.0469	–	39.3
318.15 K, x1 = 0.0998	–	36.6
318.15 K, x1 = 0.2019	–	35
318.15 K, x1 = 0.2809	–	34.4
318.15 K, x1 = 0.3975	–	33.4
318.15 K, x1 = 0.5001	–	33.3
318.15 K, x1 = 0.6818	–	32.2
323.15 K, x1 = 0.0105	–	46.6
323.15 K, x1 = 0.0199	–	43.2
323.15 K, x1 = 0.0469	–	38.5
323.15 K, x1 = 0.0998	–	35.7
323.15 K, x1 = 0.2019	–	34.4
323.15 K, x1 = 0.2809	–	33.8
323.15 K, x1 = 0.3975	–	32.8
323.15 K, x1 = 0.5001	–	32.7
323.15 K, x1 = 0.6818	–	31.6
328.15 K, x1 = 0.0105	–	45.6
328.15 K, x1 = 0.0199	–	42.2
328.15 K, x1 = 0.0469	–	37.8
328.15 K, x1 = 0.0998	–	35
328.15 K, x1 = 0.2019	–	33.7
328.15 K, x1 = 0.2809	–	33.1
328.15 K, x1 = 0.3975	–	32.2
328.15 K, x1 = 0.5001	–	32.1
328.15 K, x1 = 0.6818	–	30.8

Reference: the NIST ThermoML archive (doi:10.1021/je7001013)
